Laboratory results published in paper PMC3950855 (British Journal of Cancer, 2014).
“And” between values parts separate entries of the source, which are not always exact repeats. Identical values can stand only once. Values belong to the compound of their own block, whether it stands above or below them.

Columns and labels:
[1] = Plasma pharmacokinetics by LC/PDA; details: for Cmax: human, in vivo, im, Panobinostat Cmax (mean), 20 mg
GIST = details: salvage treatment; ref Demetri et al, 2006, 2012; cited from earlier work
[2] = Phase I trial safety: adverse events; type: in vivo, human
CYP2D6 = details: ref Hamberg et al, 2011; Filppula et al, 2012; cited from earlier work
[3] = system: histone H3 acetylation in PBMNC; assay: Acetylation of histone H3 in PBMNC of study patients; type: in vivo, human; details: dose level 1, three patients
[4] = system: GIST-T1 (exon 11-mutant) cells; assay: GIST-T1 cells immunoblot; type: cell-based
[5] = 20 mg thrice weekly; ref Fukutomi et al (2012); cited from earlier work
PBMNC = type: cell-based, human; details: ex vivo incubation for 8 h
[6] = both dose levels + IM 400 mg, 12 patients
[7] = panobinostat + IM 400 mg, 12 patients
[8] = Pan 50 nm for 8 h, then withdrawal

actual plasma levels of desmethyl-IM vs prediction ([1]; during combination with panobinostat): as predicted
Structure (SMILES): Cc1ccc(NC(=O)c2ccc(CN3CCNCC3)cc2)cc1Nc1nccc(-c2cccnc2)n1 [desmethyl-IM, N-desmethyl-IM]

Structure (SMILES): CNC(=O)c1cc(Oc2ccc(NC(=O)Nc3ccc(Cl)c(C(F)(F)F)c3)c(F)c2)ccn1 [regorafenib]
median time to progression (GIST): ~6 months
objective remissions (GIST): 4.5%

Structure (SMILES): Cc1[nH]c2ccccc2c1CCNCc1ccc(/C=C/C(=O)NO)cc1 [panobinostat, Panobinostat]
Anaemia, % of patients [2, 6]: 42% and 41.7%
Anaemia, No. of patients Total [2, 6]: 5
Chills, % of patients [2, 6]: 16.7%
Chills, No. of patients Total [2, 6]: 2
Constipation, % of patients [2, 6]: 16.7%
Constipation, No. of patients Total [2, 6]: 2
Creatinine, % of patients [2, 6]: 58% and 58.3%
Creatinine, No. of patients Total [2, 6]: 7
Diarrhoea, % of patients [2, 6]: 42% and 41.7%
Diarrhoea, No. of patients Total [2, 6]: 5
Dizziness, % of patients [2, 6]: 25.0%
Dizziness, No. of patients Total [2, 6]: 3
Dry mouth, % of patients [2, 6]: 16.7%
Dry mouth, No. of patients Total [2, 6]: 2
Dry skin, % of patients [2, 6]: 16.7%
Dry skin, No. of patients Total [2, 6]: 2
Dysgeusia, % of patients [2, 6]: 16.7%
Dysgeusia, No. of patients Total [2, 6]: 2
Dyspepsia, % of patients [2, 6]: 25.0%
Dyspepsia, No. of patients Total [2, 6]: 3
Fatigue, % of patients [2, 6]: 67% and 66.7%
Fatigue, No. of patients Total [2, 6]: 8
Headache, % of patients [2, 6]: 16.7%
Headache, No. of patients Total [2, 6]: 2
Hypothyroidism, % of patients [2, 6]: 25.0%
Hypothyroidism, No. of patients Total [2, 6]: 3
Lymphopenia, % of patients [2, 6]: 16.7%
Lymphopenia, No. of patients Total [2, 6]: 2
Muscle spasms, % of patients [2, 6]: 25.0%
Muscle spasms, No. of patients Total [2, 6]: 3
Nausea, % of patients [2, 6]: 50%
Nausea, No. of patients Total [2, 6]: 6
Neutropenia, % of patients [2, 6]: 16.7%
Neutropenia, No. of patients Total [2, 6]: 2
Oedema, % of patients [2, 6]: 25.0%
Oedema, No. of patients Total [2, 6]: 3
Thrombocytopenia, % of patients [2, 6]: 91.7%
Thrombocytopenia, No. of patients Total [2, 6]: 11
Vomiting, % of patients [2, 6]: 33% and 33.3%
Vomiting, No. of patients Total [2, 6]: 4
Weight loss, % of patients [2, 6]: 25.0%
Weight loss, No. of patients Total [2, 6]: 3
MTD (dose level) ([2]; dose level 1 = panobinostat 20 mg + IM 400 mg): dose level 1
dose-limiting toxicity ([2]; dose level 2 (30 mg panobinostat and 400 mg IM)): severe thrombocytopenia
Anaemia, No. of patients Grade 2 ([2]; panobinostat 20 mg + IM 400 mg): 3
Anaemia, No. of patients Total ([2]; panobinostat 20 mg + IM 400 mg): 3
Chills, No. of patients Grade 1 ([2]; panobinostat 20 mg + IM 400 mg): 1
Chills, No. of patients Grade 2 ([2]; panobinostat 20 mg + IM 400 mg): 1
Chills, No. of patients Total ([2]; panobinostat 20 mg + IM 400 mg): 2
Constipation, No. of patients Grade 1 ([2]; panobinostat 20 mg + IM 400 mg): 1
Constipation, No. of patients Total ([2]; panobinostat 20 mg + IM 400 mg): 1
Creatinine, No. of patients Grade 1 ([2]; panobinostat 20 mg + IM 400 mg): 2
Creatinine, No. of patients Grade 2 ([2]; panobinostat 20 mg + IM 400 mg): 2
Creatinine, No. of patients Grade 3 ([2]; panobinostat 20 mg + IM 400 mg): 1
Creatinine, No. of patients Total ([2]; panobinostat 20 mg + IM 400 mg): 5
Diarrhoea, No. of patients Grade 1 ([2]; panobinostat 20 mg + IM 400 mg): 3
Diarrhoea, No. of patients Grade 2 ([2]; panobinostat 20 mg + IM 400 mg): 1
Diarrhoea, No. of patients Total ([2]; panobinostat 20 mg + IM 400 mg): 4
Dizziness, No. of patients Grade 1 ([2]; panobinostat 20 mg + IM 400 mg): 2
Dizziness, No. of patients Total ([2]; panobinostat 20 mg + IM 400 mg): 2
Dry mouth, No. of patients Grade 1 ([2]; panobinostat 20 mg + IM 400 mg): 2
Dry mouth, No. of patients Total ([2]; panobinostat 20 mg + IM 400 mg): 2
Dry skin, No. of patients Grade 1 ([2]; panobinostat 20 mg + IM 400 mg): 1
Dry skin, No. of patients Total ([2]; panobinostat 20 mg + IM 400 mg): 1
Dysgeusia, No. of patients Grade 1 ([2]; panobinostat 20 mg + IM 400 mg): 2
Dysgeusia, No. of patients Total ([2]; panobinostat 20 mg + IM 400 mg): 2
Dyspepsia, No. of patients Grade 1 ([2]; panobinostat 20 mg + IM 400 mg): 2
Dyspepsia, No. of patients Total ([2]; panobinostat 20 mg + IM 400 mg): 2
Fatigue, No. of patients Grade 1 ([2]; panobinostat 20 mg + IM 400 mg): 3
Fatigue, No. of patients Grade 2 ([2]; panobinostat 20 mg + IM 400 mg): 3
Fatigue, No. of patients Total ([2]; panobinostat 20 mg + IM 400 mg): 6
Headache, No. of patients Grade 1 ([2]; panobinostat 20 mg + IM 400 mg): 1
Headache, No. of patients Total ([2]; panobinostat 20 mg + IM 400 mg): 1
Hypothyroidism, No. of patients Grade 1 ([2]; panobinostat 20 mg + IM 400 mg): 3
Hypothyroidism, No. of patients Total ([2]; panobinostat 20 mg + IM 400 mg): 3
Lymphopenia, No. of patients Grade 3 ([2]; panobinostat 20 mg + IM 400 mg): 1
Lymphopenia, No. of patients Total ([2]; panobinostat 20 mg + IM 400 mg): 1
Muscle spasms, No. of patients Grade 1 ([2]; panobinostat 20 mg + IM 400 mg): 1
Muscle spasms, No. of patients Grade 2 ([2]; panobinostat 20 mg + IM 400 mg): 1
Muscle spasms, No. of patients Total ([2]; panobinostat 20 mg + IM 400 mg): 2
Nausea, No. of patients Grade 1 ([2]; panobinostat 20 mg + IM 400 mg): 1
Nausea, No. of patients Grade 2 ([2]; panobinostat 20 mg + IM 400 mg): 1
Nausea, No. of patients Total ([2]; panobinostat 20 mg + IM 400 mg): 2
Neutropenia, No. of patients Grade 4 ([2]; panobinostat 20 mg + IM 400 mg): 1
Neutropenia, No. of patients Total ([2]; panobinostat 20 mg + IM 400 mg): 1
Oedema, No. of patients Grade 1 ([2]; panobinostat 20 mg + IM 400 mg): 2
Oedema, No. of patients Total ([2]; panobinostat 20 mg + IM 400 mg): 2
Thrombocytopenia, No. of patients Grade 1 ([2]; panobinostat 20 mg + IM 400 mg): 3
Thrombocytopenia, No. of patients Grade 2 ([2]; panobinostat 20 mg + IM 400 mg): 1
Thrombocytopenia, No. of patients Grade 3 ([2]; panobinostat 20 mg + IM 400 mg): 1
Thrombocytopenia, No. of patients Grade 4 ([2]; panobinostat 20 mg + IM 400 mg): 1
Thrombocytopenia, No. of patients Total ([2]; panobinostat 20 mg + IM 400 mg): 6
Vomiting, No. of patients Grade 2 ([2]; panobinostat 20 mg + IM 400 mg): 1
Vomiting, No. of patients Total ([2]; panobinostat 20 mg + IM 400 mg): 1
Weight loss, No. of patients Grade 1 ([2]; panobinostat 20 mg + IM 400 mg): 1
Weight loss, No. of patients Grade 2 ([2]; panobinostat 20 mg + IM 400 mg): 1
Weight loss, No. of patients Total ([2]; panobinostat 20 mg + IM 400 mg): 2
Anaemia, No. of patients Grade 2 ([2]; panobinostat 30 mg + IM 400 mg): 2
Anaemia, No. of patients Total ([2]; panobinostat 30 mg + IM 400 mg): 2
Chills, No. of patients Total ([2]; panobinostat 30 mg + IM 400 mg): 0
Constipation, No. of patients Grade 1 ([2]; panobinostat 30 mg + IM 400 mg): 1
Constipation, No. of patients Total ([2]; panobinostat 30 mg + IM 400 mg): 1
Creatinine, No. of patients Grade 1 ([2]; panobinostat 30 mg + IM 400 mg): 1
Creatinine, No. of patients Grade 2 ([2]; panobinostat 30 mg + IM 400 mg): 1
Creatinine, No. of patients Total ([2]; panobinostat 30 mg + IM 400 mg): 2
Diarrhoea, No. of patients Grade 1 ([2]; panobinostat 30 mg + IM 400 mg): 1
Diarrhoea, No. of patients Total ([2]; panobinostat 30 mg + IM 400 mg): 1
Dizziness, No. of patients Grade 1 ([2]; panobinostat 30 mg + IM 400 mg): 1
Dizziness, No. of patients Total ([2]; panobinostat 30 mg + IM 400 mg): 1
Dry mouth, No. of patients Total ([2]; panobinostat 30 mg + IM 400 mg): 0
Dry skin, No. of patients Grade 1 ([2]; panobinostat 30 mg + IM 400 mg): 1
Dry skin, No. of patients Total ([2]; panobinostat 30 mg + IM 400 mg): 1
Dysgeusia, No. of patients Total ([2]; panobinostat 30 mg + IM 400 mg): 0
Dyspepsia, No. of patients Grade 1 ([2]; panobinostat 30 mg + IM 400 mg): 1
Dyspepsia, No. of patients Total ([2]; panobinostat 30 mg + IM 400 mg): 1
Fatigue, No. of patients Grade 2 ([2]; panobinostat 30 mg + IM 400 mg): 2
Fatigue, No. of patients Total ([2]; panobinostat 30 mg + IM 400 mg): 2
Headache, No. of patients Grade 2 ([2]; panobinostat 30 mg + IM 400 mg): 1
Headache, No. of patients Total ([2]; panobinostat 30 mg + IM 400 mg): 1
Hypothyroidism, No. of patients Total ([2]; panobinostat 30 mg + IM 400 mg): 0
Lymphopenia, No. of patients Grade 2 ([2]; panobinostat 30 mg + IM 400 mg): 1
Lymphopenia, No. of patients Total ([2]; panobinostat 30 mg + IM 400 mg): 1
Muscle spasms, No. of patients Grade 2 ([2]; panobinostat 30 mg + IM 400 mg): 1
Muscle spasms, No. of patients Total ([2]; panobinostat 30 mg + IM 400 mg): 1
Nausea, No. of patients Grade 1 ([2]; panobinostat 30 mg + IM 400 mg): 1
Nausea, No. of patients Grade 2 ([2]; panobinostat 30 mg + IM 400 mg): 2
Nausea, No. of patients Grade 3 ([2]; panobinostat 30 mg + IM 400 mg): 1
Nausea, No. of patients Total ([2]; panobinostat 30 mg + IM 400 mg): 4
Neutropenia, No. of patients Grade 2 ([2]; panobinostat 30 mg + IM 400 mg): 1
Neutropenia, No. of patients Total ([2]; panobinostat 30 mg + IM 400 mg): 1
Oedema, No. of patients Grade 1 ([2]; panobinostat 30 mg + IM 400 mg): 1
Oedema, No. of patients Total ([2]; panobinostat 30 mg + IM 400 mg): 1
Thrombocytopenia, No. of patients Grade 3 ([2]; panobinostat 30 mg + IM 400 mg): 3
Thrombocytopenia, No. of patients Grade 4 ([2]; panobinostat 30 mg + IM 400 mg): 2
Thrombocytopenia, No. of patients Total ([2]; panobinostat 30 mg + IM 400 mg): 5
Vomiting, No. of patients Grade 1 ([2]; panobinostat 30 mg + IM 400 mg): 2
Vomiting, No. of patients Grade 2 ([2]; panobinostat 30 mg + IM 400 mg): 1
Vomiting, No. of patients Total ([2]; panobinostat 30 mg + IM 400 mg): 3
Weight loss, No. of patients Grade 2 ([2]; panobinostat 30 mg + IM 400 mg): 1
Weight loss, No. of patients Total ([2]; panobinostat 30 mg + IM 400 mg): 1
Grade 3 and 4 toxicities clearly attributable to study treatments ([2]; panobinostat + IM 400 mg): thrombocytopenia, neutropenia and nausea
severe hepatotoxicity ([2]; panobinostat + IM 400 mg): did not occur
patients with at least one adverse event [2, 7]: All patients
treatment-related deaths [2, 7]: no treatment-related deaths
CYP2D6 inhibition (CYP2D6): weak inhibitor
time H3 acetylation was maintained in PBMNCs [3]: 24 h
effect of continuous panobinostat treatment for 32 h [4]: reactivation of KIT phosphorylation
persistence of H3 acetylation after removal of panobinostat [4, 8]: 8 h
time to complete disappearance of H3 acetylation after removal [4, 8]: ≤ 24 h
Cmax plasma level, panobinostat monotherapy [5]: 10 ng /ml^−1
Cmax ([1]; D1, with IM 400 mg): 36.1 nM
Cmax ([1]; D8, with IM 400 mg): 47.5 nM
Cmax ([1]; D15, with IM 400 mg): 44.6 nM
concentration at which H3 acetylation became detectable (PBMNC): ≥ 5 ng/mL
